Laboratory results: US6228602A, “Competitive apo-peroxidase assay” (Bayer Corporation, priority 1999, dated 2001)

How the values were obtained:
apo-POD [1] = target: T1, apo-POD (Armoracia rusticana, UniProt P00433); assay: Metal porphyrin study: reactivation of apo-peroxidase (Example IV); type: biochemical, horse radish; details: for % R @ 90 second read time on CLINITEK-200+, mean: 12 μM apo-POD, HEMASTIX no lepidine/pH 7.5
T1 construct: purchased Sigma Chemical Company, St. Louis, Mo
T1 sequence (P00433 31-353): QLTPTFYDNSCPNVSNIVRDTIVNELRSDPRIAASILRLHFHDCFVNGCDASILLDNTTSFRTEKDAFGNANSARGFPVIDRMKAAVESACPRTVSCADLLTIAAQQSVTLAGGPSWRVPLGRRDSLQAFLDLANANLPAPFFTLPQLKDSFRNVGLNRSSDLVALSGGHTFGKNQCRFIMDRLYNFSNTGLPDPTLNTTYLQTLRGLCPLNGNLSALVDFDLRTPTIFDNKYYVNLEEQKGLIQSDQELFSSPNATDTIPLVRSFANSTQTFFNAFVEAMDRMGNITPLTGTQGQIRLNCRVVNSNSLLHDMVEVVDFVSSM
Experimental: (§1) In this example, other metal porphyrins were tested for their ability to reactivate different types of apo-peroxidases. Metals such as Fe, Cu, Mg, Zn, Ni, Mn, Co and Pd were complexed to hematin and added to the peroxidase detecting agent. Metals such as Mn, Fe, Cu and Co and porphyrins other than hematin, i.e. deuteroporphyrin and coproporphyrin were also shown to provide the desired response.

[2] = Metal porphyrin study: metal porphyrin in water without apo-enzyme (Example IV); type: biochemical; details: HEMASTIX no lepidine/pH 7.5
Experimental: as §1

apo-Hb = target: T2, apo-Hb (Homo sapiens, UniProt P68871+P69905); assay: Metal porphyrin study: reactivation of apo-hemoglobin (Example IV); type: biochemical; details: 12 μM apo-Hb, 12 μM metal porphyrin, HEMASTIX no lepidine/pH 7.5
T2 construct: made in house
T2 sequence (P69905 2-142 limits assumed): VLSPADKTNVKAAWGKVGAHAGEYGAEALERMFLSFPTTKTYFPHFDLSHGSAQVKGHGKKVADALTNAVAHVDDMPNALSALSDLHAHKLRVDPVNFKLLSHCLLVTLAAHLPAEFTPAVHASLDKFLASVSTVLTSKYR
T2 sequence (P68871 2-147 limits assumed): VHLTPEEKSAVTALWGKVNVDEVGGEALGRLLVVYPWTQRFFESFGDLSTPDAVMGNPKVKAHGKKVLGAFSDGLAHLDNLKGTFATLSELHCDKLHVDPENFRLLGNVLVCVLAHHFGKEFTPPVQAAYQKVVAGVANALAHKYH
Experimental: as §1
A 0.7% solution of hemoglobin was lowered to pH 1.5 and the resulting solution was ultrafiltered through a 10 KDa cutoff membrane followed by several changes of water. Filtered material was reconstituted into water. The apo-hemoglobin passed […]. […] It produced a HEMASTIX® result of +++++ indicating a high concentration of hemoglobin.

apo-POD [3] = target: T1, apo-POD; assay: Detection limit study: peroxidase activity / apo-POD reactivation read with HEMASTIX reagent (Example I); type: biochemical, horse radish
Experimental: In this example apo-peroxidase is compared to hematin and hematin-antigen conjugates to determine the detectable concentrations and effects of conjugation and antigen molecular weight on apo-enzyme reactivations. Solutions containing combinations of apo-POD, Fe^+3 hematin and hematin conjugate were tested for peroxidase activity. Peroxidase activity was measured in urine using HEMASTIX® reagent as set out in Table 3. This reagent is similar to that set out in Table 1 but lacking the metal porphyrin conjugate, competitive binder and apo-peroxidase while containing lepidine as an activator.
A 10 μL portion of hematin (3.6 μM, 0.23 mg/dL in phosphate buffered saline) or a 10 μL hematin-BJP allotment (3.6 μM, 8.61 mg/dL in phosphate buffered saline) was mixed with 10 μL apo-POD (3.6 μM, 14.0 mg/dL in phosphate buffered saline) all in 980 μL of phosphate buffered saline and then diluted to the desired concentration with additional phosphate buffered saline. The solution was incubated for 1 minute at 40° C. or at room temperature. The response of HEMASTIX® reagent dipped into the test solution was measured on a CLINITEK™-200 reflectance instrument. The response of the reagent set out in Table 1 on the phosphate buffered solution alone was 65.2% reflectance at 1 minute.
Apo-horse radish peroxidase was obtained from Sigma Chemical Company of St. Louis, Mo. The phosphate buffered solution was prepared by adding 0.69 g monobasic sodium phosphate, 0.71 g of dibasic sodium phosphate and 0.45 g of sodium chloride to 100 mL of water.
The HEMASTIX® reagent referred to earlier with the addition of lepidine and at a lower pH when compared to the formula of Table 1 was applied to the strip in a two dip system of the following composition and used in Examples I to IV (Table 3).

apo-POD [4] = target: T1, apo-POD; assay: as above; type: biochemical, horse radish; details: 1 minute @ 30° C., hematin, antigen-hematin or apo-POD alone (Cases A, B, E)
apo-POD [5] = target: T1, apo-POD; assay: Interference study with peroxidase detecting dry reagent (Example III); type: biochemical, horse radish; details: hemoglobin/myoglobin: reagent without modification; ascorbate: system with ascorbate scavenger
Experimental: In this example, a peroxidase detecting dry reagent with resistance to 0.81 mg/dL hemoglobin (or myoglobin) and 25 mg/dL ascorbate and sufficient sensitivity to detect apo-peroxidase reactivation was used. […]
The reagent was tested by dipping it into solutions containing the interfering substance with and without Fe hematin. […]

Molecule: Co deuteroporphyrin
- % R @ 90 second read time on CLINITEK-200+, mean (apo-POD [1]; 120 μM metal porphyrin): 74.1 % R
- % R @ 90 second read time on CLINITEK-200+, mean ([2]; 120 μM metal porphyrin): 71.5 % R

Molecule: Fe coproporphyrin
- % R @ 90 second read time on CLINITEK-200+, mean (apo-POD [1]; 12 μM metal porphyrin): 56.4 % R
- % R @ 90 second read time on CLINITEK-200+, mean (apo-Hb): 52.1 % R
- % R @ 90 second read time on CLINITEK-200+, mean ([2]; 12 μM metal porphyrin): 69.7 % R

Molecule: Mn deuteroporphyrin
- % R @ 90 second read time on CLINITEK-200+, mean (apo-POD [1]; 120 μM metal porphyrin): 48.2 % R
- response / activity with apo-peroxidase (in words) (apo-POD [1]; metal porphyrin study): responses similar to those obtained for Fe
- % R @ 90 second read time on CLINITEK-200+, mean ([2]; 120 μM metal porphyrin): 66.4 % R

Molecule: Ni deuteroporphyrin
- % R @ 90 second read time on CLINITEK-200+, mean (apo-POD [1]; 120 μM metal porphyrin): 76.1 % R
- % R @ 90 second read time on CLINITEK-200+, mean ([2]; 120 μM metal porphyrin): 75.5 % R

Molecule: Pb deuteroporphyrin
- % R @ 90 second read time on CLINITEK-200+, mean (apo-POD [1]; 120 μM metal porphyrin): 73.4 % R
- % R @ 90 second read time on CLINITEK-200+, mean ([2]; 120 μM metal porphyrin): 72.1 % R

Molecule: apo-POD: Apo-horse radish peroxidase obtained from Sigma Chemical Company
- peroxidase activity (in words) (apo-POD [3]; 3.6 nM, without partner): no activity by itself
- time to complete reactivation (apo-POD [3]; 20-40° C.): 1 min
- Mean % Reflectance @ 660 nm (apo-POD [4]; 3.6 nM, antigen IgG): 62.3%
- Mean % Reflectance @ 660 nm (apo-POD [4]; (3.6 nM; antigen Sulfmethazine)): 61.2%
- Mean % Reflectance @ 660 nm (apo-POD [4]; (3.6 mM; antigen BJP)): 64.1%

Molecule: hemoglobin: interfering substance, 0.81 mg/dL
- interference with peroxidase detecting reagent (in words) (apo-POD [5]): causes a false positive response

B1: myoglobin: interfering substance, 0.81 mg/dL (protein, UniProt P02144 2-154, looked up)
Myoglobin: GLSDGEWQLVLNVWGKVEADIPGHGQEVLIRLFKGHPETLEKFDKFKHLKSEDEMKASEDLKKHGATVLTALGGILKKKGHHEAEIKPLAQSHATKHKIPVKYLEFISECIIQVLQSKHPGDFGADAQGAMNKALELFRKDMASNYKELGFQG
- interference with peroxidase detecting reagent (in words) (apo-POD [5]): causes a false positive response
